Laboratory results: US20100008912A1, “COMBINATION DRUG” (TAKEDA PHARMACEUTICAL COMPANY LIMITED, priority 2006, published 2010)
Where a name gives a salt, the structure may show the parent alone.

Experiments:
N87 (gastric cancer) = experiment: Cell growth determination test of combined use, Combination Index, N87; type: cell-based, human; conditions: combined use with compound A
Procedure: (§1) The cell density of the cell suspension was measured by cell counter Sysmex CDA500, and the cell density was adjusted to 4×10^4 cell/mL using the aforementioned medium, which was dispensed to each well of a 96 well multi-well culture plate (Nunc) by 0.15 mL and cultured overnight at 37° C., 5% CO2. […] After culturing at 37° C., 5% CO2 for 5 days, the cells of each well were fixed, stained and subjected to colorimetry. The effect of the combined use was determined by the method of Chou T C, Talalay P Adv.
(§2) The effect of combined use was determined by the method of Chou T C, Talalay P Adv.

OE19 (esophageal cancer) = experiment: Cell growth determination test of combined use, Combination Index, OE19; type: cell-based, human; conditions: combined use with compound A
Procedure: as §1, §2

[1] = test system: HER2 high expressing cancer cells (BT-474, N87, Calu3, OE19); experiment: Cell growth determination test of combined use, summary over the four cell lines; type: cell-based, human; conditions: in vitro; summary of Table 1
Procedure: (§3) Human breast cancer cell line BT-474 (ATCC (American Type Culture Collection) catalog No. HTB-20, Lasfargues E Y, In Vitro 15:723-729 (1979)), which is a passage cultured HER2 high expressing cell, was treated with trypsin and suspended in RPMI-1640 medium (GibcoInvitrogen) containing 10% bovine fetus serum (GibcoInvitrogen). The cell density of the cell suspension was measured by cell counter Sysmex CDA500, and the cell density was adjusted to 4×10^4 cell/mL using the aforementioned medium, which was dispensed to each well of a 96 well multi-well culture plate (Nunc) by 0.15 mL and cultured overnight at 37° C., 5% CO2. Thereto was added a medium containing compound A 40-200 nmol/L at a given concentration, a medium containing trastuzumab (Herceptin (trademark) (Genentech, Inc.) catalog No. NDC 50242-134-68, 79-400 ng/mL) at a given concentration, or a medium containing compound A 40-200 nmol/L and trastuzumab 79-400 ng/mL at a given concentration. […] The effect of the combined use was determined by the method of Chou T C, Talalay P Adv. […]
(§4) HER2 high expressing human cancer cell lines, BT-474 (breast cancer), N87 (gastric cancer), Calu3 (lung cancer) and OE19 (esophageal cancer), were purchased from ATCC and used for the experiments. […] The effect of combined use was determined by the method of Chou T C, Talalay P Adv.

[2] = test system: HER2 high expressing clinical gastric cancer cell line (4-1ST); experiment: Tumor growth of 4-1ST tumor pieces transplanted subcutaneously in nude mouse, combined use; type: in vivo
Text: A tumor mass of 4-1ST (obtained from Central Institute for Experimental Animals), which was HER2 high expressing clinical gastric cancer cell line transplanted and passaged in vivo in nude mouse, was recovered from nude mouse, aseptically cut into 2 to 3 mm square pieces. The above-mentioned tumor piece was fixed on a trocar transplantation tool and transplanted subcutaneously into the abdomen of nude mouse. As a nude mouse for transplantation, BALB/cAJc l-nu/nu, female, 5-week-old mice were purchased from CLEA Japan, Inc. After 1 week of acclimation on receipt of the mice, the tumor piece was transplanted subcutaneously into the abdomen of 6-week-old mouse. The tumor volume was measured over time from 2 weeks after the transplantation and the mouse with a tumor volume of from 200 to 300 mm^3 was used for the test. Compound A was adjusted to a concentration of 10 mg/mL with 0.5% aqueous methylcellulose solution, and orally administered to mouse at a liquid amount of the above-mentioned compound A suspension of 10 mL/kg body weight. Compound A was administered twice a day in the morning and in the afternoon (administration interval was 7 hr or more) for 14 consecutive days. As for trastuzumab (Herceptin (trademark) (Genentech, Inc.) catalog No. NDC 50242-134-68), undiluted solution (21 mg/mL) was diluted to 1 mg/mL with saline, and intraperitoneally administered at a liquid amount of 10 mL/kg body weight. Trastuzumab was administered twice a week, totaling 4 times. The tumor volume was measured every 2 or 3 days, and the final tumor volume was measured on the next day of the completion of the 14 day administration and the effect of combined use was determined (FIG. 3). […] As for cetuximab (Erbitux (trademark)), undiluted solution (2 mg/mL) was intraperitoneally administered at a liquid amount of 10 mL/kg body weight. […] The tumor volume was measured every 2 or 3 days, and the final tumor volume was measured on the next day of the completion of the 14 day administration and the effect of combined use was determined (FIG. 4).

[3] = test system: Human breast cancer cell line BT-474; experiment: Cell growth inhibitory assay, SRB staining method, BT-474; type: cell-based; conditions: in vitro; serially diluted; 5 days; BT-474 (FIG. 7)
Procedure: (§5) Human breast cancer cell line BT-474 was treated with trypsin and suspended in RPMI 1640 medium (Invitrogen) containing 10% bovine fetus serum (Invitrogen). BT-474 cell was plated on a 96 well plate at 6000 cells/100 μL/well. The next day, fulvestrant alone, compound A alone or a mixture of fulvestrant and compound A was serially diluted and added. After addition of the compound, the mixture was stood in a CO2 incubator for 5 days. 50 μL of 25% glutaraldehyde solution (Wako) was added to 200 μL of medium and the mixture was left standing at room temperature for 15 min. The plate was washed with PBS once, 200 μL of PBS was added, 25 μL of 50% trichloroacetic acid was added, and the mixture was left standing at 4° C. for 1 hr or longer. The plate was washed 5 times with tap water, redundant water was removed by slamming the plate against Kimtowel. 50 μL of 0.4% (w/v) Sulforhodamine B (SRB, Sigma)-containing 1% (v/v) acetic acid solution was added to each well and, 15 min later, the plate was washed 3 times with 1% acetic acid solution (v/v). The plate was thoroughly dried, 10 mM Tris solution was added, and the mixture was stirred well with a plate shaker, and the absorbance at 550 nm was measured (Bio-Rad, Benchmark Plus). In calculation, a control free of a drug was 100% (FIG. 7).

[4] = test system: HER family genes (EGFR, HER2, HER3, HER4) in MCF-7 cell; experiment: HER family gene expression (TaqMan PCR) in MCF-7; type: cell-based, human
Procedure: MCF-7 cell was plated on a 6 well plate at 8.6×10^4 cells/well. The next day, the cells were treated with compound A (1 μM), fulvestrant (1 μM) or compound A (1 μM)+fulvestrant (1 μM). After 120 hr, total RNA was extracted using an RNeasy mini kit (Qiagen). 1 μg of total RNA was subjected to a Reverse Transcriptase reaction using a high capacity cDNA archive kit (P/N 4322171, Applied Biosystems) to give cDNA. The obtained cDNA was diluted 50-fold with Nuclease Free water (Promega), and 5 μL thereof was used for PCR reaction. 2×TaqMan Universal PCR Master Mix (12.5 μL) and 20×Probe & Primer (TaqMan Gene Expression Assays, 1.25 μL) and Nuclease Free water (6.25 μL) were blended. PCR reaction and analysis were performed using GeneAmp 7700 (Applied Biosystems). The reaction conditions were 50° C.×2 min, 95° C.×10 min, followed by 95° C.×15 sec, 60° C.×1 min, which cycle was repeated 40 times. For data analysis, calculation was made with GAPDH as an internal control and according to ? Ct method

[5] = test system: Human breast cancer cell line MCF-7; experiment: Cell growth inhibitory assay, SRB staining method, MCF-7; type: cell-based; conditions: in vitro; serially diluted; 4 days; MCF-7 (FIG. 8)
Procedure: Human breast cancer cell line MCF-7 cell was plated on a 96 well plate at 3000 cells/100 μL/well. The next day, fulvestrant alone, compound A alone or a mixture of fulvestrant and compound A was serially diluted and added.
as §5, with “After” for “Human breast cancer cell line BT-474 was treated with trypsin and suspended in RPMI 1640 medium (Invitrogen) containing 10% bovine fetus serum (Invitrogen). BT-474 cell was plated on a 96 well plate at 6000 cells/100 μL/well. The next day, fulvestrant alone, compound A alone or a mixture of fulvestrant and compound A was serially diluted and added. After”, “for 4” for “for 5”, “(FIG. 8).” for “(FIG. 7).”

[6] = test system: Human breast cancer cell line BT-474; experiment: Cell growth test of combined use, Combination Index by the method of Chou and Talalay, BT-474; type: cell-based; conditions: for Combination Index at the time of inhibition of cell growth by 50%: combined use with compound A, BT-474
Procedure: as §1, §2

[7] = test system: Human breast cancer cell line BT-474 (HER2 high expressing); experiment: Tumor growth of BT-474 transplanted subcutaneously in nude mouse, combined use; type: in vivo; conditions: compound A 10 mg/mL, 10 mL/kg orally twice a day, 14 days, 10 mL/kg intraperitoneally twice a week
Procedure: (§6) Human breast cancer cell line BT-474 (ATCC (American Type Culture Collection) catalog No. HTB-20, Lasfargues E Y, In Vitro 15:723-729 (1979)), which is a passage cultured HER2 high expressing cell, was treated with trypsin and suspended in RPMI-1640 medium (GibcoInvitrogen) containing 10% bovine fetus serum (GibcoInvitrogen).
as §6

Calu3 (lung cancer) = experiment: Cell growth determination test of combined use, Combination Index, Calu3; type: cell-based, human; conditions: combined use with compound A; Calu-3
Procedure: as §3, §4

O=c1[nH]cc(F)c(=O)[nH]1 [Compound 5FU, 5FU]
Combination Index at the time of inhibition of cell growth by 50% (N87 (gastric cancer)): 0.95 | Combination Index at the time of inhibition of cell growth by 50% (OE19 (esophageal cancer)): 1.43

CC(C)(O)CC(=O)NCCn1ccc2ncnc(Nc3ccc(Oc4cccc(C(F)(F)F)c4)c(Cl)c3)c21 [Compound A, N-{2-[4-({3-chloro-4-[3-(trifluoromethyl)phenoxy]phenyl}amino)-5H-pyrrolo[3,2-d]pyrimidin-5-yl]ethyl}-3-hydroxy-3-methylbutanamide]
Effect of combined use of compound A and chemotherapeutic agents on cell growth [1]: additive effect | Effect of combined use of compound A and erlotinib on tumor volume ([2]; compound A 10 mg/mL and erlotinib 2 mg/mL, each 10 mL/kg orally twice a day, 14 days (FIG. 5)): synergistic effect | Effect of combined use of compound A and cetuximab on tumor volume ([2]; compound A 10 mg/mL, 10 mL/kg orally twice a day, 14 days, cetuximab 2 mg/mL, 10 mL/kg intraperitoneally twice a week, 4 times (FIG. 4)): synergistic effect | Effect of combined use of compound A and trastuzumab on tumor volume ([2]; compound A 10 mg/mL, 10 mL/kg orally twice a day, 14 days, trastuzumab 1 mg/mL, 10 mL/kg intraperitoneally twice a week, 4 times (FIG. 3)): synergistic effect | Cell growth inhibition by combined use of compound A and fulvestrant, compared to each alone [3]: stronger cell growth inhibitory action | Action on HER signal ([4]; compound A 1 μM alone or + fulvestrant 1 μM, 120 hr (FIG. 9)): HER signal blocking action | Cell growth inhibition by combined use of compound A and fulvestrant, compared to each alone [5]: stronger cell growth inhibitory action | Effect of combined use of compound A and trastuzumab on cell growth ([6]; in vitro, compound A 40-200 nmol/L + trastuzumab 79-400 ng/mL, 5 days, Combination Index vs Fraction affected (FIG. 1)): synergistic effect | Effect of combined use of compound A and paclitaxel on tumor volume, compared to each agent alone ([7]; paclitaxel 3 mg/mL, 4 times (FIG. 6)): stronger action | Effect of combined use of compound A and trastuzumab on tumor volume ([7]; trastuzumab 1 mg/mL, 4 times, two-way analysis of variance (FIG. 2)): synergistic effect

CC(=O)O[C@@]12CO[C@@H]1C[C@H](O)[C@@]1(C)C(=O)[C@H](O)C3=C(C)[C@@H](OC(=O)[C@H](O)[C@@H](NC(=O)OC(C)(C)C)c4ccccc4)C[C@@](O)([C@@H](OC(=O)c4ccccc4)[C@H]21)C3(C)C [docetaxel]
Combination Index at the time of inhibition of cell growth by 50% (N87 (gastric cancer)): 0.57 | Combination Index at the time of inhibition of cell growth by 50% (OE19 (esophageal cancer)): 0.94 | Combination Index at the time of inhibition of cell growth by 50% [6]: 1.10

COc1cccc2c1C(=O)c1c(O)c3c(c(O)c1C2=O)C[C@@](O)(C(=O)CO)C[C@@H]3O[C@H]1C[C@H](N)[C@H](O)[C@H](C)O1 [doxorubicin hydrochloride]
Combination Index at the time of inhibition of cell growth by 50% (Calu3 (lung cancer)): 1.39 | Combination Index at the time of inhibition of cell growth by 50% (OE19 (esophageal cancer)): 0.96 | Combination Index at the time of inhibition of cell growth by 50% [6]: 1.65

C[C@]12CC[C@@H]3c4ccc(O)cc4C[C@@H](CCCCCCCCC[S+]([O-])CCCC(F)(F)C(F)(F)F)[C@H]3[C@@H]1CC[C@@H]2O (stereo partly drawn) [fulvestrant]
HER family gene expression (EGFR, HER2, HER3, HER4), control group = 1 ([4]; 1 μM, 120 hr, GAPDH as internal control (FIG. 9)): increase

CCc1c2c(nc3ccc(OC(=O)N4CCC(N5CCCCC5)CC4)cc13)-c1cc3c(c(=O)n1C2)COC(=O)[C@]3(O)CC [irinotecan hydrochloride]
Combination Index at the time of inhibition of cell growth by 50% (N87 (gastric cancer)): 1.02 | Combination Index at the time of inhibition of cell growth by 50% (OE19 (esophageal cancer)): 0.83
